In this assay the target is T1, TRPM5 (Homo sapiens, UniProt Q9NZQ8).
T1 sequence (Q9NZQ8 1-1165): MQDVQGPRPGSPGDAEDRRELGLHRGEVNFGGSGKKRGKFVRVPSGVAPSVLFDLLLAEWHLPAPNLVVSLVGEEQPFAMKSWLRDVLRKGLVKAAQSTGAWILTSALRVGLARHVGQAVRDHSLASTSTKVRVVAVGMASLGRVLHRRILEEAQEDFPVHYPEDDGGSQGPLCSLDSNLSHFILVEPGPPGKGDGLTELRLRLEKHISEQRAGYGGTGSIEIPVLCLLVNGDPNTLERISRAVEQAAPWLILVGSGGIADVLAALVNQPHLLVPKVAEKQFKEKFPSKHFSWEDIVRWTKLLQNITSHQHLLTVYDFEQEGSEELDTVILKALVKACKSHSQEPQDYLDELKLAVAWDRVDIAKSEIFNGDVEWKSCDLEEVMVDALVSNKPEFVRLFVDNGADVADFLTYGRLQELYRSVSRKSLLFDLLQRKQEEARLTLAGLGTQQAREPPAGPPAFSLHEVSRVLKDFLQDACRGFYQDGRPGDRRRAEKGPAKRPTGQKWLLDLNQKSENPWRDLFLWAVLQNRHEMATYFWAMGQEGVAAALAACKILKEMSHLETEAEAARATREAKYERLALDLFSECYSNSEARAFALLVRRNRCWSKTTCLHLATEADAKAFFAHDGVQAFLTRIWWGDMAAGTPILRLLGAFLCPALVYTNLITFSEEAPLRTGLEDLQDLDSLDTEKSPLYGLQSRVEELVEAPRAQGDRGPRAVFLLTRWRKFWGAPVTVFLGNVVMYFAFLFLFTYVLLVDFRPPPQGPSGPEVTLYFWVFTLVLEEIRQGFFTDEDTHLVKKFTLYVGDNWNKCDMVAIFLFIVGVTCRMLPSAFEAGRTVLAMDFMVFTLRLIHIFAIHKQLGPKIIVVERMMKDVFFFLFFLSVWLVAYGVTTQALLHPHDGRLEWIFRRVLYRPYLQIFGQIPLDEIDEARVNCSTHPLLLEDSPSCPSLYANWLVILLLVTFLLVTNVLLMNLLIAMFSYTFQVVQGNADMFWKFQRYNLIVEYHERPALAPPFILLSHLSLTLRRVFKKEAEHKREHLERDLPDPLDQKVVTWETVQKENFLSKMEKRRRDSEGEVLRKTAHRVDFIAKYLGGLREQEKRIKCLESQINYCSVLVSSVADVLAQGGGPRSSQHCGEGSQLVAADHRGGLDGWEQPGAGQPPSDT
Description: TRP channel panel primary screen (membrane potential dye, stable CHO line). The format is cell-based. As to conditions: 0.3-300μM. As for the experimental part:
±PZQ, (R)-PZQ and (S)-PZQ were screened against a panel of 17 human TRP channels (SB Drug Discovery, Glasgow). For all hTRPs, except for TRPM5, individual channel constructs were stably expressed in HEK cell lines. TRMP5 was expressed in a stable CHO cell line. In preparation for the assays, cells were trypsinized, counted and seeded (50,000 cells/well) in black, clear-bottomed 96 well plates and incubated overnight. […] Plates were screened using a Flexstation (Molecular Devices, FX01138), monitoring fluorescence values every ~1.52 seconds. For ‘agonist mode’ testing, 10μl of the appropriate test compound, or standard agonist, was added after 20 seconds and fluorescence monitored for 2 minutes at λex = 485nm, λem = 525nm for Ca^2+ imaging and λex = 530nm, λem = 565nm for membrane potential measurements. […]

As for `O=C(C1CCCCC1)N1CC(=O)N2CCc3ccccc3[C@H]2C1` [(S)-PZQ], the “activation of TRPM5 in primary screen” value is “not activated”.

The values are drawn from paper PMC5927461, “Activation of host transient receptor potential (TRP) channels by praziquantel stereoisomers” (PLoS Neglected Tropical Diseases, 2018).
